Assays:
[1] = tested on: LH, FSH, estradiol (E2), progesterone (P), CA125; assay: Example 8A: serum LH, FSH, E2, P and CA125; format: in vivo, human; details: for week at which median serum E2 decreased to LLQ: Compound 1 40 mg, leuprolide acetate 3.75 mg/4 wk
Description: Study participants were premenopausal (≥20 years) Japanese women with endometriosis (EM)-associated pain who completed a preceding 12-week study and were eligible to continue for an additional 12-week treatment were enrolled. The participants has confirmed normal regular menstrual cycles (25 to 38 days per cycle) and diagnosed to have EM and EM-related dysmenorrhea and pelvic pain of at least moderate severity as determined by the physician B&B scale. The primary endpoint was the safety including assessment of change in bone mineral density (BMD) using dual energy x-ray absorptiometry, adverse events, vital signs, weight, 12-lead electrocardiograms, and clinical laboratory tests. […] Baseline characteristics were similar between randomized patients and all patients who entered the extension study.

uterine fibroids = assay: Example 10 phase 3 study versus leuprorelin in uterine fibroids: efficacy; format: in vivo, human; details: between Week 6 and Week 12
Method: Subjects were aged 20 years or older inclusive, with uterine fibroids. […] The number of sites for this study was approximately 40.
The leuprorelin subjects were administered 1.88 mg leuprorelin, 3.75 mg leuprorelin, or placebo subcutaneously once every 4 weeks. The duration of treatment for both groups was 24 weeks, and the follow-up period was 4 weeks.
Assessment included answers to the uterine fibroid symptom and quality of life questionnaire provided in FIGS. 3A-3C; answers to the work productivity and activity impairment questionnaire: general health provided in FIGS. 66A-66B; clinical laboratory tests for hematology, chemistries, urinalysis, hormone, and biochemical bone metabolism markers.

[2] = tested on: women with uterine fibroids; assay: Example 10: safety
Description: Secondary endpoints for safety included: Adverse events (AEs), vital signs, weight, standard 12-lead electrocardiogram (ECG), clinical laboratory tests, BMD, biochemical bone metabolism markers (serum N-telopeptide [NTELOP] and bone specific alkaline phosphatase [BAP])

CONC(=O)Nc1ccc(-c2sc3c(c2CN(C)C)c(=O)n(-c2ccc(OC)nn2)c(=O)n3Cc2c(F)cccc2F)cc1 [Compound 1, N-(4-(1-(2,6-difluorobenzyl)-5-((dimethylamino)methyl)-3-(6-methoxy-3-pyridazinyl)-2,4-dioxo-1,2,3,4-tetrahydrothieno[2,3-d]pyrimidin-6-yl)phenyl)-N′-methoxyurea]
median change in serum E2 from baseline ([1]; 10 mg, Week 24): 1.0 pg/mL
median change in serum FSH from baseline ([1]; 10 mg, Week 24): −0.630 mIU/mL
median change in serum LH from baseline ([1]; 10 mg, Week 24): 0.300 mIU/mL
median change in serum progesterone (P) from baseline ([1]; 10 mg, Week 24): 0.000 ng/mL
subjects with CA125 less than or equal to 35 U/mL ([1]; 10 mg, Week 24): 75.3%
median change in serum E2 from baseline ([1]; 20 mg, Week 24): -9.0 pg/mL
median change in serum FSH from baseline ([1]; 20 mg, Week 24): −0.990 mIU/mL
median change in serum LH from baseline ([1]; 20 mg, Week 24): −0.785 mIU/mL
median change in serum progesterone (P) from baseline ([1]; 20 mg, Week 24): 0.005 ng/mL
subjects with CA125 less than or equal to 35 U/mL ([1]; 20 mg, Week 24): 81.1%
median change in serum E2 from baseline ([1]; 40 mg, Week 24): -39.0 pg/mL
median change in serum FSH from baseline ([1]; 40 mg, Week 24): −3.550 mIU/mL
median change in serum LH from baseline ([1]; 40 mg, Week 24): −2.480 mIU/mL
median change in serum progesterone (P) from baseline ([1]; 40 mg, Week 24): -0.080 ng/mL
subjects with CA125 less than or equal to 35 U/mL ([1]; 40 mg, Week 24): 88.5%
week at which median serum E2 decreased to LLQ [1]: 2 Week
proportion of subjects with a PBAC <10 (uterine fibroids): 82.2%
AE: Arthralgia ([2]; 24 wk): 8(5.8) n(%)
AE: Bone density decreased ([2]; 24 wk): 6(4.3) n(%)
AE: Bone resorption test abnormal ([2]; 24 wk): 7(5.1) n(%)
AE: Dizziness ([2]; 24 wk): 9(6.5) n(%)
AE: Gamma-glutamyl transferase increased ([2]; 24 wk): 7(5.1) n(%)
AE: Genital haemorrhage ([2]; 24 wk): 7(5.1) n(%)
AE: Headache ([2]; 24 wk): 21(15.2) n(%)
AE: Hot flush ([2]; 24 wk): 59(42.8) n(%)
AE: Hyperhidrosis ([2]; 24 wk): 13(9.4) n(%)
AE: Malaise ([2]; 24 wk): 8(5.8) n(%)
AE: Menorrhagia ([2]; 24 wk): 34(24.6) n(%)
AE: Metrorrhagia ([2]; 24 wk): 68(49.3) n(%)
AE: Resorption bone increased ([2]; 24 wk): 7(5.1) n(%)
AE: Somnolence ([2]; 24 wk): 7(5.1) n(%)
AE: Viral upper respiratory tract infection ([2]; 24 wk): 39(28.3) n(%)
AEs Leading to Study Drug Discontinuation ([2]; 24 wk): 9(6.5) n(%)
Deaths ([2]; 24 wk): 0(0.0) n(%)
SAEs Leading to Study Drug Discontinuation ([2]; 24 wk): 0(0.0) n(%)
Serious Treatment-Emergent AEs ([2]; 24 wk): 0(0.0) n(%)
Serious Treatment-Emergent AEs, Not Related ([2]; 24 wk): 0(0.0) n(%)
Serious Treatment-Emergent AEs, Related ([2]; 24 wk): 0(0.0) n(%)
Treatment-Emergent AEs ([2]; 24 wk): 131(94.9) n(%)
Treatment-Emergent AEs, Not Related ([2]; 24 wk): 11(8.0) n(%)
Treatment-Emergent AEs, Related ([2]; 24 wk): 120(87.0) n(%)
AE leading to discontinuation: Abdominal pain ([2]; in vivo): 0(0.0) n(%)
AE leading to discontinuation: Arthralgia ([2]; in vivo): 1(0.7) n(%)
AE leading to discontinuation: Back pain ([2]; in vivo): 0(0.0) n(%)
AE leading to discontinuation: Blood pressure increased ([2]; in vivo): 0(0.0) n(%)
AE leading to discontinuation: Depression ([2]; in vivo): 1(0.7) n(%)
AE leading to discontinuation: Drug eruption ([2]; in vivo): 0(0.0) n(%)
AE leading to discontinuation: Fatigue ([2]; in vivo): 1(0.7) n(%)
AE leading to discontinuation: Headache ([2]; in vivo): 1(0.7) n(%)
AE leading to discontinuation: Hot flush ([2]; in vivo): 4(2.9) n(%)
AE leading to discontinuation: Hypertension ([2]; in vivo): 0(0.0) n(%)
AE leading to discontinuation: Malaise ([2]; in vivo): 1(0.7) n(%)
AE leading to discontinuation: Nausea ([2]; in vivo): 0(0.0) n(%)
AE leading to discontinuation: Pyrexia ([2]; in vivo): 0(0.0) n(%)
AE leading to discontinuation: Tenosynovitis ([2]; in vivo): 1(0.7) n(%)
AE leading to discontinuation: Tenosynovitis stenosans ([2]; in vivo): 1(0.7) n(%)
ALP > 3 × ULN ([2]; in vivo): 0 (0.0) n (%)
ALT > 3 × ULN ([2]; in vivo): 3 (2.2) n (%)
ALT > 5 × ULN ([2]; in vivo): 1 (0.7) n (%)
ALT and AST > 3 × ULN ([2]; in vivo): 2 (1.4) n (%)
ALT or AST > 3 × ULN with Tbili > 2 × ULN ([2]; in vivo): 0 (0.0) n (%)
AST > 3 × ULN ([2]; in vivo): 2 (1.4) n (%)
AST > 5 × ULN ([2]; in vivo): 0 (0.0) n (%)
Any Markedly Abnormal LFT ([2]; in vivo): 3 (2.2) n (%)

CCNC(=O)[C@@H]1CCCN1C(=O)[C@H](CCCNC(=N)N)NC(=O)[C@H](CC(C)C)NC(=O)[C@@H](CC(C)C)NC(=O)[C@H](Cc1ccc(O)cc1)NC(=O)[C@H](CO)NC(=O)[C@H](Cc1c[nH]c2ccccc12)NC(=O)[C@H](Cc1c[nH]cn1)NC(=O)[C@@H]1CCC(=O)N1 [leuprolide acetate, reference compound]
median change in serum E2 from baseline ([1]; 3.75 mg sc/4 wk, Week 24): -40.0 pg/mL
median change in serum FSH from baseline ([1]; 3.75 mg sc/4 wk, Week 24): −2.730 mIU/mL
median change in serum LH from baseline ([1]; 3.75 mg sc/4 wk, Week 24): −3.140 mIU/mL
median change in serum progesterone (P) from baseline ([1]; 3.75 mg sc/4 wk, Week 24): -0.070 ng/mL
percent change from baseline in CA125 concentration ([1]; 3.75 mg sc/4 wk, Week 24): −54.15±46.359%
subjects with CA125 less than or equal to 35 U/mL ([1]; 3.75 mg sc/4 wk, Week 24): 88.9%
week at which median serum E2 decreased to LLQ [1]: 4 Week
proportion of subjects with a PBAC <10 (uterine fibroids): 83.1%
Deaths ([2]; 24 wk): 0(0.0) n(%)

Reference: patent US11957684B2, “Treatment of heavy menstrual bleeding associated with uterine fibroids” (Sumitomo Pharma Switzerland GmbH, priority 2016, dated 2024)
